Values of other authors in patent publication US20060074057A1, “Use of chenodeoxycholic acid for reducing adipose tissue” (priority 2004, published 2006).

Biological target: 11-beta-hydroxysteroid dehydrogenase type 1 (11BHSD1) (Homo sapiens, UniProt P28845)
Conditions: "has been shown"; no data or method given

11-beta-hydroxysteroid dehydrogenase type 1 (11BHSD1), sequence (P28845 whole entry): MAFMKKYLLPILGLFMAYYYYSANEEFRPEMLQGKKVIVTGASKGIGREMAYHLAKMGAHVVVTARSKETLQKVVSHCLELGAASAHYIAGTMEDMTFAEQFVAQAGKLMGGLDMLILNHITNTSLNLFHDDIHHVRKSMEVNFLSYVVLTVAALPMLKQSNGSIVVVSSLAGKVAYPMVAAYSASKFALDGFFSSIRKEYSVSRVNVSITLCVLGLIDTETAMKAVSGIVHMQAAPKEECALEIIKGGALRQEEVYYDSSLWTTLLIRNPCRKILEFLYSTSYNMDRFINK

For `CC(CCC(=O)O)C1CCC2C3C(CC[C@]12C)[C@@]1(C)CC[C@@H](O)C[C@H]1C[C@H]3O` (stereo partly drawn) [Chenodeoxycholic acid, 3-alpha,7-alpha-dihydroxy-5-beta-cholanic acid], the “inhibition of 11BHSD1 (result in words)” value is given as “selective inhibitor”.
